Test results reported in ChEMBL document CHEMBL1201862, “PubChem BioAssay data set” (2004).
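Five compound concentrations were applied to cells in 96-well plates for 48 hours; endpoints were derived by simple linear interpolation of the resulting dose-response curve. GI50 is the concentration that inhibits growth by half.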 Activity calls are given as the source filed them. Rule as the data show it: active = GI50 up to about 1.1 µM and inactive = higher.

Experiments:
Assay in all cases: NCI-60 cell line screen, 48 h
[1] = test system: RXF 393
[2] = test system: 786-0
[3] = test system: A498
[4] = test system: SF-295
[5] = test system: OVCAR-3
[6] = test system: MDA-N
[7] = test system: OVCAR-4
[8] = test system: SK-MEL-2
[9] = test system: T47D
[10] = test system: NCI-H23
[11] = test system: KM12
[12] = test system: IGROV-1
[13] = test system: Hs-578T
[14] = test system: MCF7
[15] = test system: SNB-19
[16] = test system: K562
[17] = test system: PC-3
[18] = test system: MOLT-4
[19] = test system: HOP-92
[20] = test system: HL-60

SMILES | GI50 [1] | GI50 [2] | GI50 [3] | GI50 [4] | GI50 [5] | GI50 [6] | GI50 [7] | GI50 [8] | GI50 [9] | GI50 [10] | GI50 [11] | GI50 [12] | GI50 [13] | GI50 [14] | GI50 [15] | GI50 [16] | GI50 [17] | GI50 [18] | GI50 [19] | GI50 [20]
O=C(Cc1ccccc1)NN1C(=O)/C(=C\c2cccc(O)c2)S/C1=N\c1ccccc1 | > 100 µM (inactive) | > 100 µM (inactive) | > 100 µM (inactive) | > 100 µM (inactive) | 83.4 µM (inactive) | > 100 µM (inactive) | > 100 µM (inactive) | > 100 µM (inactive) | 57.3 µM (inactive) | > 100 µM (inactive) | > 100 µM (inactive) | > 100 µM (inactive) | > 100 µM (inactive) | > 100 µM (inactive) | > 100 µM (inactive) | – | – | – | – | –
[O-][S+]1c2ccccc2SCSc2ccccc21 | > 100 µM (inactive) | > 100 µM (inactive) | > 100 µM (inactive) | > 100 µM (inactive) | > 100 µM (inactive) | > 100 µM (inactive) | > 100 µM (inactive) | > 100 µM (inactive) | 97.7 µM (inactive) | > 100 µM (inactive) | > 100 µM (inactive) | – | – | > 100 µM (inactive) | > 100 µM (inactive) | 16.7 µM (inactive) | > 100 µM (inactive) | 66.5 µM (inactive) | 14.8 µM (inactive) | –
CC(C(O)c1ccccc1)[N+](=O)[O-] (stereo not given) | 10.9 µM (inactive) | 6.93 µM (inactive) | 17.5 µM (inactive) | 28.5 µM (inactive) | 4.91 µM (inactive) | – | 24.7 µM (inactive) | 19.5 µM (inactive) | 15.5 µM (inactive) | 32.8 µM (inactive) | 19.4 µM (inactive) | 14.8 µM (inactive) | 28.2 µM (inactive) | 3.64 µM (inactive) | 24.5 µM (inactive) | 6.44 µM (inactive) | 22.6 µM (inactive) | 1.65 µM (inactive) | – | 4.79 µM (inactive)
CC(CCC(=O)O)[C@H]1CCC2[C@H]3C(CC(=O)[C@@]21C)[C@@]1(C)CCC(O)C[C@H]1C[C@@H]3O (stereo not given in full) | > 100 µM (inactive) | > 100 µM (inactive) | > 100 µM (inactive) | – | – | > 100 µM (inactive) | > 100 µM (inactive) | > 100 µM (inactive) | > 100 µM (inactive) | > 100 µM (inactive) | > 100 µM (inactive) | > 100 µM (inactive) | – | > 100 µM (inactive) | > 100 µM (inactive) | > 100 µM (inactive) | > 100 µM (inactive) | > 100 µM (inactive) | > 100 µM (inactive) | > 100 µM (inactive)
NC(=O)/C=c1/c2ccccc2n2nc3ccccc3c12 | 17.1 µM (inactive) | 8.67 µM (inactive) | 32.1 µM (inactive) | 31.1 µM (inactive) | 15.7 µM (inactive) | 15.6 µM (inactive) | 10.3 µM (inactive) | 15.6 µM (inactive) | 7.01 µM (inactive) | 22.1 µM (inactive) | 14.3 µM (inactive) | 10.6 µM (inactive) | 31.2 µM (inactive) | 26.9 µM (inactive) | 20.1 µM (inactive) | 15.3 µM (inactive) | 11 µM (inactive) | 2.69 µM (inactive) | – | 3.91 µM (inactive)
CCCCCCCCCCCCCCCC1(OC)C[N+](C)(C)CCO1 (stereo not given) | 0.778 µM (active) | 0.813 µM (active) | 19.1 µM (inactive) | 1.69 µM (inactive) | 1.75 µM (inactive) | 2.05 µM (inactive) | 1.02 µM (active) | 2.38 µM (inactive) | 5.73 µM (inactive) | 1.3 µM (inactive) | 0.586 µM (active) | 1.61 µM (inactive) | 1.97 µM (inactive) | 0.221 µM (active) | 1.6 µM (inactive) | 1.85 µM (inactive) | 2.4 µM (inactive) | 1.12 µM (inactive) | – | 0.0883 µM (active)
